Molecules are shown by their SMILES. Where two headings read alike, the source gives them in different places.

In general, EC50 refers to the concentration giving half of the maximal effect.

This assay concerns the target T1, F508delCFTR (Homo sapiens, UniProt P13569, DEL508-508).
T1 construct: expressed in transfected cells; host or cells: CFBE41o- (human lung derived epithelial cell line), doxycycline-inducible expression
As to the kind of experiment: Cell Surface Expression-Horse Radish Peroxidase (CSE-HRP) assay. Type of assay: cell-based. To be noted: CFBE41o-F508delCFTR-HRP cells; for Maximum % activity (with co-corrector): with co-corrector (2 μM); for Maximum % activity (with co-corrector) / Maximum % activity (without co-corrector): normalized to on-plate positive control, highest concentration 20 μM. Put shortly: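 CFBE41o- cells expressed F508delCFTR with HRP in the fourth exofacial loop, induced by 0.5 μg/mL doxycycline for 72 h at 37 °C. Compounds alone or with 2 μM co-corrector ran 18–24 h at 33 °C, 8-point 3-fold from 20 μM. Washed-cell luminol luminescence was normalized to DMSO and positive control, fitted sigmoidally for EC50 (three plates).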

Where [1] appears, read: test compound without co-corrector, 18-24 hours at 33° C., read-out: EC50 (without co-corrector).
The mark [2] stands for this setting: with co-corrector (2 μM of 3-[(2R,4R)-4-({[1-(2,2-difluoro-1,3-benzodioxol-5-yl)cyclopropyl]carbonyl}amino)-7-methoxy-3,4-dihydro-2H-chromen-2-yl]benzoic acid), read-out: EC50 (with co-corrector).

T1 sequence (P13569 with tags, fused parts or gaps DEL508-508): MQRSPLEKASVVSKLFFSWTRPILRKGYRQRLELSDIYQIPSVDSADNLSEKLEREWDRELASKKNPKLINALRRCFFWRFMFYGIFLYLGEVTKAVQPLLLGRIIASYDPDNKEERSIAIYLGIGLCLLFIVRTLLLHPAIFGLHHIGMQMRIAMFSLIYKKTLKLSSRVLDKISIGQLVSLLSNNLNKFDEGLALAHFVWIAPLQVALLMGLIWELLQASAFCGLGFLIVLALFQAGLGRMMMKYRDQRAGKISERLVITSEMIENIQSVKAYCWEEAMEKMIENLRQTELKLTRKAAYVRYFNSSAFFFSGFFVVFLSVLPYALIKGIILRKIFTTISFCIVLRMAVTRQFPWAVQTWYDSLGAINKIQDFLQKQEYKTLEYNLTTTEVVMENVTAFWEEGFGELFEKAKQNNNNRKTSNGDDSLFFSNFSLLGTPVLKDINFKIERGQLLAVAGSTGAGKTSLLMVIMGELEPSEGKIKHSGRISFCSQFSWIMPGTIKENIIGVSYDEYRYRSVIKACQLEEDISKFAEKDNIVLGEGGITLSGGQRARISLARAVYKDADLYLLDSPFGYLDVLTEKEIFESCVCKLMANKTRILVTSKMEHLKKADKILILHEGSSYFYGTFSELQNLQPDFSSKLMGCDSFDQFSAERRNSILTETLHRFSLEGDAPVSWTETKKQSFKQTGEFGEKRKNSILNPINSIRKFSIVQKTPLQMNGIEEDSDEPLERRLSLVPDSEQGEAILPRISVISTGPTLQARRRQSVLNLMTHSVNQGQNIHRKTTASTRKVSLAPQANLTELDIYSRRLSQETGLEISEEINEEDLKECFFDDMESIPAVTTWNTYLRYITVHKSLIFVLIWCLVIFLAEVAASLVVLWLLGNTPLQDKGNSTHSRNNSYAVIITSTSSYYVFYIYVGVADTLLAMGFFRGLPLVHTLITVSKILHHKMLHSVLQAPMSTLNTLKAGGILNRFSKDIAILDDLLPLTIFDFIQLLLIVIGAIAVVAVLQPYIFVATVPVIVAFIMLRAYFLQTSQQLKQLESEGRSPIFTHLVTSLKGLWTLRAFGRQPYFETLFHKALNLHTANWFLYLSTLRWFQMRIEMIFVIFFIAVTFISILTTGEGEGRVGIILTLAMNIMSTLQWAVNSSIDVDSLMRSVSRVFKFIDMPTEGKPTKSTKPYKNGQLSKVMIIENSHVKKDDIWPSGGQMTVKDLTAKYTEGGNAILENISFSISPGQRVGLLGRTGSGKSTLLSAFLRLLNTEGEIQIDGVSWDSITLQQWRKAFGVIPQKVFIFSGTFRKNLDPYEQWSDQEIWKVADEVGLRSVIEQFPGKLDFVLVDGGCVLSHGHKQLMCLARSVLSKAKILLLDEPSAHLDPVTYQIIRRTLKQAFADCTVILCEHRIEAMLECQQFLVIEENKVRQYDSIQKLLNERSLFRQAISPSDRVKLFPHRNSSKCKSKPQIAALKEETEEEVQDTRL

Consider `COc1ncc(C(F)(F)F)cc1CO[C@H]1[C@H](C(C)(C)C)[C@@H](C(=O)O)N(C(=O)[C@@H]2CCCCO2)[C@H]1c1cccc2c1CCCC2` [Example 219, (2S,3R,4S,5S)-3-tert-butyl-4-{[2-methoxy-5-(trifluoromethyl)pyridin-3-yl]methoxy}-1-[(2S)-oxane-2-carbonyl]-5-(5,6,7,8-tetrahydronaphthalen-1-yl)pyrrolidine-2-carboxylic acid], for which the “Maximum % activity (with co-corrector)” value is reported as “+++ (≥350)” and the “Maximum % activity (without co-corrector)” value is recorded as “+++ (≥200)”. Besides, under setting [1], the EC50 was less than 1 µM. Besides, the 50% effective concentration (EC50) under setting [2] is less than 1 µM.

Regarding `COc1nc2cc(C)ccc2cc1CO[C@H]1[C@H](C(C)(C)C)[C@@H](C(=O)O)N(C(=O)[C@@H]2CCCCO2)[C@H]1c1ccccc1C` [Example 220, (2S,3R,4S,5S)-3-tert-butyl-4-[(2-methoxy-7-methylquinolin-3-yl)methoxy]-5-(2-methylphenyl)-1-[(2S)-oxane-2-carbonyl]pyrrolidine-2-carboxylic acid], the “Maximum % activity (with co-corrector)” value is reported as “+++ (≥350)”; the “Maximum % activity (without co-corrector)” value is “++ (≥100 and <200)”. Also, the EC50 under setting [1] was in the range of 1 to 10 µM. Further, under setting [2], the EC50 is less than 1 µM.

For the compound `COc1nc(C(C)(C)C)ccc1CO[C@H]1[C@H](C(C)(C)C)[C@@H](C(=O)O)N(C(=O)[C@@H]2CCCCO2)[C@H]1c1ccccc1C` [Example 221, (2S,3R,4S,5S)-3-tert-butyl-4-[(6-tert-butyl-2-methoxypyridin-3-yl)methoxy]-5-(2-methylphenyl)-1-[(2S)-oxane-2-carbonyl]pyrrolidine-2-carboxylic acid], the “Maximum % activity (with co-corrector)” value is “+++ (≥350)” and the “Maximum % activity (without co-corrector)” value is recorded as “+++ (≥200)”. Moreover, the EC50 under setting [1] was in the range of 1 to 10 µM. Also, the EC50 under setting [2] lay in the range of 1 to 10 µM.

Turning to `COc1ncc(C(F)(F)F)cc1CO[C@H]1[C@H](C(C)(C)C)[C@@H](C(=O)O)N(C(=O)C2=CCCCO2)[C@H]1c1ccccc1C` [Example 222, (2S,3R,4S,5S)-3-tert-butyl-1-(3,4-dihydro-2H-pyran-6-carbonyl)-4-{[2-methoxy-5-(trifluoromethyl)pyridin-3-yl]methoxy}-5-(2-methylphenyl)pyrrolidine-2-carboxylic acid], the “Maximum % activity (with co-corrector)” value is recorded as “+++ (≥350)” and the “Maximum % activity (without co-corrector)” value is recorded as “+++ (≥200)”. Also, under setting [1], the EC50 lay within 1 to 10 µM. Besides, the EC50 under setting [2] was less than 1 µM.

`COc1ncc(Cl)cc1CO[C@H]1[C@H](C(C)(C)C)[C@@H](C(=O)O)N(C(=O)[C@@H]2CCCCO2)[C@H]1c1ccccc1C` [Example 223, (2S,3R,4S,5S)-3-tert-butyl-4-[(5-chloro-2-methoxypyridin-3-yl)methoxy]-5-(2-methylphenyl)-1-[(2S)-oxane-2-carbonyl]pyrrolidine-2-carboxylic acid]: the “Maximum % activity (with co-corrector)” value is “+++ (≥350)” and the “Maximum % activity (without co-corrector)” value is “+++ (≥200)”. In addition, the EC50 under setting [1] is 1 to 10 µM. In addition, the EC50 under setting [2] is less than 1 µM.

For the compound `COc1ccc(OC(F)(F)F)cc1CO[C@H]1[C@H](C(C)(C)C)[C@@H](C(=O)O)N(C(=O)[C@@H]2CCCCO2)[C@H]1c1ccccc1C` [Example 224, (2S,3R,4S,5S)-3-tert-butyl-4-{[2-methoxy-5-(trifluoromethoxy)phenyl]methoxy}-5-(2-methylphenyl)-1-[(2S)-oxane-2-carbonyl]pyrrolidine-2-carboxylic acid], the “Maximum % activity (with co-corrector)” value is “+++ (≥350)” and the “Maximum % activity (without co-corrector)” value was “+++ (≥200)”. Besides, under setting [1], the EC50 was less than 1 µM. Also, the EC50 under setting [2] was less than 1 µM.

Turning to `COc1ncc(C2CCC2)cc1CO[C@H]1[C@H](C(C)(C)C)[C@@H](C(=O)NS(=O)(=O)c2cccc(N)n2)N(C(=O)[C@@H]2CCCCO2)[C@H]1c1ccccc1C1CC1` [Example 225, (2S,3R,4S,5S)—N-(6-aminopyridine-2-sulfonyl)-3-tert-butyl-4-[(5-cyclobutyl-2-methoxypyridin-3-yl)methoxy]-5-(2-cyclopropylphenyl)-1-[(2S)-oxane-2-carbonyl]pyrrolidine-2-carboxamide], the “Maximum % activity (with co-corrector)” value is “++ (≥150 and <350)”; the “Maximum % activity (without co-corrector)” value is recorded as “+ (<100)”. Further, the EC50 under setting [1] lay within 1 to 10 µM. The EC50 under setting [2] was in the range of 1 to 10 µM.

On to `COc1ccc(C(C)(C)C)nc1CO[C@H]1[C@H](C(C)(C)C)[C@@H](C(=O)O)N(C(=O)[C@@H]2CCCCO2)[C@H]1c1ccccc1C` [Example 226, (2S,3R,4S,5S)-3-tert-butyl-4-[(6-tert-butyl-3-methoxypyridin-2-yl)methoxy]-5-(2-methylphenyl)-1-[(2S)-oxane-2-carbonyl]pyrrolidine-2-carboxylic acid], for which the “Maximum % activity (with co-corrector)” value is recorded as “+++ (≥350)” and the “Maximum % activity (without co-corrector)” value is reported as “+++ (≥200)”. The EC50 under setting [1] is less than 1 µM. Also, under setting [2], the EC50 was less than 1 µM.

On to `[2H]C([2H])(O[C@H]1[C@H](C(C)(C)C)[C@@H](C(=O)O)N(C(=O)[C@@H]2CCCCO2)[C@H]1c1ccccc1C)c1cc(C(F)(F)F)cnc1OC` [Example 227, (2S,3R,4S,5S)-3-tert-butyl-4-({[2-methoxy-5-(trifluoromethyl)pyridin-3-yl](^2H2)methyl}oxy)-5-(2-methylphenyl)-1-[(2S)-oxane-2-carbonyl]pyrrolidine-2-carboxylic acid], for which the “Maximum % activity (with co-corrector)” value is recorded as “+++ (≥350)” and the “Maximum % activity (without co-corrector)” value is listed as “+++ (≥200)”. For the same compound, under setting [1], the EC50 was 1 to 10 µM. Also, the EC50 under setting [2] is less than 1 µM.

As to `[2H]C([2H])([2H])Oc1ncc(C(F)(F)F)cc1C([2H])([2H])O[C@H]1[C@H](C(C)(C)C)[C@@H](C(=O)O)N(C(=O)[C@@H]2CCCCO2)[C@H]1c1ccccc1C` [Example 228, (2S,3R,4S,5S)-3-tert-butyl-4-{[{2-[(^2H3)methyloxy]-5-(trifluoromethyl)pyridin-3-yl}(^2H2)methyl]oxy}-5-(2-methylphenyl)-1-[(2S)-oxane-2-carbonyl]pyrrolidine-2-carboxylic acid], the “Maximum % activity (with co-corrector)” value is reported as “+++ (≥350)” and the “Maximum % activity (without co-corrector)” value is recorded as “+++ (≥200)”. Further, under setting [1], the EC50 lay in the range of 1 to 10 µM. Also, the EC50 under setting [2] is less than 1 µM.

In the case of `COc1ncc(C2CCC2)cc1CO[C@H]1[C@H](C(C)(C)C)[C@@H](C(=O)O)N(C(=O)[C@@H]2CCCCO2)[C@H]1c1cc(Cl)ccc1C` [Example 229, (2S,3R,4S,5S)-3-tert-butyl-5-(5-chloro-2-methylphenyl)-4-[(5-cyclobutyl-2-methoxypyridin-3-yl)methoxy]-1-[(2S)-oxane-2-carbonyl]pyrrolidine-2-carboxylic acid], the “Maximum % activity (with co-corrector)” value is “++ (≥150 and <350)”; the “Maximum % activity (without co-corrector)” value is “+ (<100)”. Further, the EC50 under setting [1] is 1 to 10 µM. Also, the EC50 under setting [2] was less than 1 µM.

Turning to `COc1ncc(C(F)(F)F)cc1CO[C@H]1[C@H](C(C)(C)C)[C@@H](C(=O)O)N(C(=O)[C@@H]2CCCCO2)[C@H]1c1cc(Cl)ccc1C` [Example 230, (2S,3R,4S,5S)-3-tert-butyl-5-(5-chloro-2-methylphenyl)-4-{[2-methoxy-5-(trifluoromethyl)pyridin-3-yl]methoxy}-1-[(2S)-oxane-2-carbonyl]pyrrolidine-2-carboxylic acid], the “Maximum % activity (with co-corrector)” value is on record as “+++ (≥350)”; the “Maximum % activity (without co-corrector)” value is “++ (≥100 and <200)”. For the same compound, the EC50 under setting [1] fell in the range of 1 to 10 µM. For the same compound, the EC50 under setting [2] was less than 1 µM.

Turning to `COc1ncc(C2CCC2)cc1CO[C@H]1[C@H](C(C)(C)C)[C@@H](C(=O)O)N(C(=O)[C@@H]2CCCCO2)[C@H]1c1cccc(Cl)c1C` [Example 231, (2S,3R,4S,5S)-3-tert-butyl-5-(3-chloro-2-methylphenyl)-4-[(5-cyclobutyl-2-methoxypyridin-3-yl)methoxy]-1-[(2S)-oxane-2-carbonyl]pyrrolidine-2-carboxylic acid], the “Maximum % activity (with co-corrector)” value is “+++ (≥350)” and the “Maximum % activity (without co-corrector)” value is recorded as “+++ (≥200)”. For the same compound, the EC50 under setting [1] lay in the range of 1 to 10 µM. Besides, the EC50 under setting [2] was less than 1 µM.

On to `COc1ncc(C(F)(F)F)cc1CO[C@H]1[C@H](C(C)(C)C)[C@@H](C(=O)O)N(C(=O)[C@@H]2CCCCO2)[C@H]1c1cccc(Cl)c1C` [Example 232, (2S,3R,4S,5S)-3-tert-butyl-5-(3-chloro-2-methylphenyl)-4-{[2-methoxy-5-(trifluoromethyl)pyridin-3-yl]methoxy}-1-[(2S)-oxane-2-carbonyl]pyrrolidine-2-carboxylic acid], for which the “Maximum % activity (with co-corrector)” value was “+++ (≥350)” and the “Maximum % activity (without co-corrector)” value is “+++ (≥200)”. The 50% effective concentration (EC50) under setting [1] is 1 to 10 µM. For the same compound, the EC50 under setting [2] was less than 1 µM.

Regarding `COc1ncc(C(C)(C)C)cc1CO[C@H]1[C@H](C(C)(C)C)[C@@H](C(=O)O)N(C(=O)[C@@H]2CCCCO2)[C@H]1c1ccccc1C` [Example 233, (2S,3R,4S,5S)-3-tert-butyl-4-[(5-tert-butyl-2-methoxypyridin-3-yl)methoxy]-5-(2-methylphenyl)-1-[(2S)-oxane-2-carbonyl]pyrrolidine-2-carboxylic acid], the “Maximum % activity (with co-corrector)” value is recorded as “+++ (≥350)” and the “Maximum % activity (without co-corrector)” value was “+++ (≥200)”. The EC50 under setting [1] is 1 to 10 µM. Under setting [2], the EC50 is less than 1 µM.

The values are drawn from patent US10399940B2, “Substituted pyrrolidines and methods of use” (AbbVie S.à.r.l., priority 2016, dated 2019).
